Here are results for 1 compound from PMC11744973, “Optimized extraction and kinetic study of cholesterol oxidase from a newly isolated Escherichia fergusonii strain from local whey samples: insights through a combined experimental study and artificial neural network modeling” (BMC Microbiology, 2025).

The assay has as its system T1, cholesterol oxidase (ChoX, ChOx).
T1 construct: native extracellular enzyme purified from culture supernatant (ammonium sulfate, Q-Sepharose)
Description: HRP-coupled 4-aminoantipyrine/phenol quinoneimine assay at […] nm, Lineweaver-Burk. Conditions: optimum conditions (30 °C, pH 7.5, in the presence of MgSO4 per abstract); KPB; cholesterol 0.1-3.0 mM in Triton X-100; O2 co-substrate. The format is biochemical, Escherichia fergusonii.

Broadly, the Km is the substrate concentration at which the rate is half of its maximum. Regarding `CC(C)CCC[C@@H](C)[C@H]1CC[C@H]2[C@@H]3CC=C4C[C@@H](O)CC[C@]4(C)[C@H]3CC[C@]12C` [cholesterol], the Km was found to be 710 µM.
